According to patent publication US20070190628A1, “Yeast food composition for fuel ethanol production” (priority 2006, published 2007):

Tested on: active dry yeast “z”
Test: Fermentation of normal gravity corn mash with nutrient supplements (Example 4)
Format: cell-based, Saccharomyces cerevisiae
Method: The effects of the optimized defined urea plus salts-based nutrient supplement, i.e., defined yeast food, developed in Example 3 for corn mash fermentations, were assessed by comparisons of fermentation rates and ethanol production in normal gravity corn mashes and very high gravity corn mashes that were (a) supplemented with 16 mM urea only, or (b) yeast extract, or (c) supplemented with 16 mM urea plus the defined yeast food from Example 3 which in this set of studies, contained 1.6 g/L (NH4)2HPO4, 0.32 g/L (NH4)2SO4, 0.049 g/L MgSO4.7H2O, and 0.273 mg/L ZnSO4.7H2O.
Normal density corn mashes were prepared as described in Example 1 and were determined to contain about 18-20 g dissolved solids per 100 mL mash as determined by density meter analysis. […] The mash thus prepared contained 30-32 g of dissolved solids/100 mL as determined by density meter analysis. […]
Each study was commenced by removing fermentors containing either normal gravity corn mash or very high gravity corn mash from 4° C. storage, connecting them to 30° C. water bath circulators and continually mixing the corn mash contents therein until the temperature of each mash was 30° C. […] Fermentation performance in all treatments was assessed by repeated sampling and analyses of the mashes during the fermentation periods as described in Example 1.

In the case of `NC(N)=O` [urea], the “fermentation period required to complete fermentation (disappearance of dissolved solids)” value is reported as 48 h.
